In patent US20250288206A1, “SYSTEMS AND METHODS FOR MONITORING OF DELIVERY OF LABEL-FREE DRUGS” (City University of Hong Kong, priority 2024, published 2025):

What was measured:
[1] = Release study of BA-DMSO liposome by dialysis (CEST MRI and UV 257 nm); assay type: physicochemical; settings: at the end of dialysis, BA in 10% DMSO in liposomes
Procedure: The size, polydispersity index (PDI), and surface charge of DMSO liposome were measured by dynamic light scattering using Zetasizer (Malvern Instruments, UK). Liposome concentration was measured by light scattering using NanoSight (Malvern Instruments, UK). To study the release property, dialysis cassettes with molecular weight cut-off of 10 kDa (Thermo Fisher, Waltham, USA) were used. The cassettes were first hydrated in HBS for 2 minutes. 1 mL of liposome sample was then loaded into the membrane chamber of two separate cassettes and excess air was removed by gentle squeezing of the membrane. The loaded cassettes were submerged into two beakers with 50 mL HBS at 37° C. At 15 min, 30 min, 1 hour, and 3 hour, 200 μL of dialyzed liposomes were taken out for CEST MRI measurement. In the other dialysis cassette, 1 mL of dialysis medium were taken out from the cassette at each timepoint for UV spectrometric measurement at an absorbance of 257 nm, and 1 mL of fresh medium was added after each time the medium was taken out. The retention of drug within liposome before and after dialysis was determined by measuring the UV absorbance of the supernatant obtained by treating liposome solutions with 10% Triton-X solution, sonicating at 42° C. for 1 hour, and centrifuging at 10,000 rpm. Concentration of BA was determined from BA standard curve.

[2] = Bloch-McConnell fitting of DMSO CEST peak; assay type: physicochemical; settings: 10% v/v DMSO
Procedure: During the course leading to the present invention, a series of internal and external factors that can influence DMSO's CEST effect were examined. DMSO's concentration linearly correlated with observed signal magnitude, while the change in signal when varying pH from pH 5.5 to pH 8 was less obvious. As temperature went down from 40° C. to 20° C., DMSO's CEST peak gradually moved upfield (please see FIGS. 1F to 1G). It appears that intermolecular interaction between DMSO and water was dependent on temperature. […] Exchange rate and was estimated with Bloch-McConnell fitting. Input of solute concentration was 1.41 M (molar concentration of 10% v/v DMSO) multiplied by a factor of 1.4, which was an estimation of concentration of “structured” water that formed by intermolecular interaction with DMSO and thereby served as relaying sites.

Row | SMILES | BA content released [1] | estimated exchange rate ([2]; Bloch-McConnell fitting) | Kex ([2]; fitted value, B0 3T, B1 1.2 μT, Tsat 4 s) [s⁻¹]
1 | O=C1CC(=O)NC(=O)N1 [BA, barbituric acid] | around 80% |  | 
2 | C[S+](C)[O-] [DMSO, dimethyl sulfoxide] |  | around 2 Hz | 2.1341
